In PMC5622171 (Nature Communications, 2017):

Columns and labels:
Experiment in all cases: KINOMEscan kinase profiling
Type in all cases: binding
PIP5K2C = molecular target: T1, PIP5K2C (Homo sapiens, UniProt Q8TBX8); settings: read-out: %Inhibition by 10 μM SPA70
T1 construct: purchased DiscoverX (Ambit Biosciences) KINOMEscan
Experimental: (§1) Kinase inhibition profiling assays. The kinase inhibition profiling assay (KINOMEscan) was performed by Ambit Biosciences, now part of DiscoveryX (Fremont, CA) in accordance with the […]
(§2) published protocol20, 21. […] If the inhibition of a kinase was greater […]
(§3) dilutions) starting from 30 µM.

BRSK2 = molecular target: T2, BRSK2 (Homo sapiens, UniProt Q8IWQ3); settings: read-out: %Inhibition by 10 μM SPA70
T2 construct: purchased DiscoverX (Ambit Biosciences) KINOMEscan
Experimental: as §1, §2, §3

PIK3CD = molecular target: T3, PIK3CD (Homo sapiens, UniProt O00329); settings: read-out: %Inhibition by 10 μM SPA70
T3 construct: purchased DiscoverX (Ambit Biosciences) KINOMEscan
Experimental: as §1, §2, §3

ERBB2 = molecular target: T4, ERBB2 (Homo sapiens, UniProt P04626); settings: read-out: %Inhibition by 10 μM SPA70
T4 construct: purchased DiscoverX (Ambit Biosciences) KINOMEscan
Experimental: as §1, §2, §3

[1] = molecular target: T5, JAK1(JH2domain-pseudokinase) (Homo sapiens, UniProt P23458)
T5 construct: JAK1(JH2domain-pseudokinase); purchased DiscoverX (Ambit Biosciences) KINOMEscan
Experimental: as §1, §2, §3

BTK = molecular target: T6, BTK (Homo sapiens, UniProt Q06187)
T6 construct: purchased DiscoverX (Ambit Biosciences) KINOMEscan
Experimental: as §1, §2, §3

ABL1-phosphorylated = molecular target: T7, ABL1-phosphorylated (Homo sapiens, UniProt P00519); settings: read-out: %Inhibition by 10 μM SPA70
T7 construct: purchased DiscoverX (Ambit Biosciences) KINOMEscan
Experimental: as §1, §2, §3

MAP3K2 = molecular target: T8, MAP3K2 (Homo sapiens, UniProt Q9Y2U5); settings: read-out: %Inhibition by 10 μM SPA70
T8 construct: purchased DiscoverX (Ambit Biosciences) KINOMEscan
Experimental: as §1, §2, §3

CDC2L2 = molecular target: T9, CDC2L2 (Homo sapiens, UniProt Q9UQ88); settings: read-out: %Inhibition by 10 μM SPA70
T9 construct: purchased DiscoverX (Ambit Biosciences) KINOMEscan
Experimental: as §1, §2, §3

[2] = molecular target: T10, RPS6KA5(Kin.Dom.2-C-terminal) (Homo sapiens, UniProt O75582); settings: read-out: %Inhibition by 10 μM SPA70
T10 construct: RPS6KA5(Kin.Dom.2-C-terminal); purchased DiscoverX (Ambit Biosciences) KINOMEscan
T10 sequence (O75582 388-802 limits assumed): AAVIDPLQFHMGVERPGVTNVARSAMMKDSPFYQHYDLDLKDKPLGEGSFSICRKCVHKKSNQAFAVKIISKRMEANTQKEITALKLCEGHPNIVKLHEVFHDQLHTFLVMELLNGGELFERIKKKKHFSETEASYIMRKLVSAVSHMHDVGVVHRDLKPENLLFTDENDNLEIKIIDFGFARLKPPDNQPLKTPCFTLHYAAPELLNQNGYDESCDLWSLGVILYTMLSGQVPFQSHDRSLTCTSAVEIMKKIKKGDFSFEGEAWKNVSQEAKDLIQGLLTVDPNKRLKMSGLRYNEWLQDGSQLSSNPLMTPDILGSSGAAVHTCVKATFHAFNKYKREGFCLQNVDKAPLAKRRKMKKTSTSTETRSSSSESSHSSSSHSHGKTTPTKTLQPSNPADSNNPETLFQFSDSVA
Experimental: as §1, §2, §3

QSK = molecular target: T11, QSK (Homo sapiens, UniProt Q9Y2K2)
T11 construct: purchased DiscoverX (Ambit Biosciences) KINOMEscan
T11 sequence (Q9Y2K2 whole entry): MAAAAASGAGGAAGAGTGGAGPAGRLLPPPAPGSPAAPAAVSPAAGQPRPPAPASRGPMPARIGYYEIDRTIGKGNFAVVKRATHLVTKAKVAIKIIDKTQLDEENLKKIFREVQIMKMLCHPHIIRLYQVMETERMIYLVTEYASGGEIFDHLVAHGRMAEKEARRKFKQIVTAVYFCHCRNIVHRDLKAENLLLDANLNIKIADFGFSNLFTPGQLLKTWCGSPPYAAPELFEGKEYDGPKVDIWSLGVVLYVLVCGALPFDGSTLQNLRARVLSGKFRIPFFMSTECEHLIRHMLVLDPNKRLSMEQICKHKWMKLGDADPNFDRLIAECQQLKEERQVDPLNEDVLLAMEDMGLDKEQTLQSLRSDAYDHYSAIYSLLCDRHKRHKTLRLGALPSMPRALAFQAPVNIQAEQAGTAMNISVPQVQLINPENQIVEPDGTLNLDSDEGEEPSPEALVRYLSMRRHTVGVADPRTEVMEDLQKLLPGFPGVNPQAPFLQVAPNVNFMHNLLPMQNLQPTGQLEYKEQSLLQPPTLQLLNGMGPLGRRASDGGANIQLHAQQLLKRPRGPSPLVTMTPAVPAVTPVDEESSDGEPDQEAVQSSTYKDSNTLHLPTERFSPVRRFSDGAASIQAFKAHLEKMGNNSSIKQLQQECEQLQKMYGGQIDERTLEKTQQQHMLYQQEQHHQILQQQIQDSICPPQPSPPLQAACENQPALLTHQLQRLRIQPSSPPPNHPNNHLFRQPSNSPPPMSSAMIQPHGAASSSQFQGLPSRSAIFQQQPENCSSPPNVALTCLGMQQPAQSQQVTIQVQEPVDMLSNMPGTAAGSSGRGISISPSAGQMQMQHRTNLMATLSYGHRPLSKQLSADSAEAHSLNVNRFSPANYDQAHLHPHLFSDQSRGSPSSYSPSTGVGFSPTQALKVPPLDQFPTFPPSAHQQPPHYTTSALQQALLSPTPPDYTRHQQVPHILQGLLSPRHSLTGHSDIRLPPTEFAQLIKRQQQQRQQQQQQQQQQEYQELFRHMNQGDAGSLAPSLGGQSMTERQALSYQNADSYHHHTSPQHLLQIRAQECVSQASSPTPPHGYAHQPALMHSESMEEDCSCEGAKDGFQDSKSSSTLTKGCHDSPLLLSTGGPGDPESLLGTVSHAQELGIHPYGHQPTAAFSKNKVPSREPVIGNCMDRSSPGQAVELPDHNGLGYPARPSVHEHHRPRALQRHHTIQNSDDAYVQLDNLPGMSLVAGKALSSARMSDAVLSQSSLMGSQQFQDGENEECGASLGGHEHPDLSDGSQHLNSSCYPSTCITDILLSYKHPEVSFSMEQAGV
Experimental: as §1, §2, §3

ERBB4 = molecular target: T12, ERBB4 (Homo sapiens, UniProt Q15303); settings: read-out: %Inhibition by 10 μM SPA70
T12 construct: purchased DiscoverX (Ambit Biosciences) KINOMEscan
Experimental: as §1, §2, §3

HIPK4 = molecular target: T13, HIPK4 (Homo sapiens, UniProt Q8NE63); settings: read-out: %Inhibition by 10 μM SPA70
T13 construct: purchased DiscoverX (Ambit Biosciences) KINOMEscan
Experimental: as §1, §2, §3

ROS1 = molecular target: T14, ROS1 (Homo sapiens, UniProt P08922); settings: read-out: %Inhibition by 10 μM SPA70
T14 construct: purchased DiscoverX (Ambit Biosciences) KINOMEscan
Experimental: as §1, §2, §3

[3] = molecular target: T15, RSK1(Kin.Dom.2-C-terminal) (Homo sapiens, UniProt Q15418); settings: read-out: %Inhibition by 10 μM SPA70
T15 construct: RSK1(Kin.Dom.2-C-terminal); purchased DiscoverX (Ambit Biosciences) KINOMEscan
T15 sequence (Q15418 392-735 limits assumed): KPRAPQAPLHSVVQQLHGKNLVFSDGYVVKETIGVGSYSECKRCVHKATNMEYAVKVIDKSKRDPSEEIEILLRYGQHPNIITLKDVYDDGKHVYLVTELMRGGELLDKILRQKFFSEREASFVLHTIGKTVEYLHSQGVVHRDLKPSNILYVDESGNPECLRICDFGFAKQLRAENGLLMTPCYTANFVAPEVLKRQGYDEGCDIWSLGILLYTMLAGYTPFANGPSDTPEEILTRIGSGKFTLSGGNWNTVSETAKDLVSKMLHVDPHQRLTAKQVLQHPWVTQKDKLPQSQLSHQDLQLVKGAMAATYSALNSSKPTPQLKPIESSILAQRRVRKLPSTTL
Experimental: as §1, §2, §3

CSNK1A1 = molecular target: T16, CSNK1A1 (Homo sapiens, UniProt P48729); settings: read-out: %Inhibition by 10 μM SPA70
T16 construct: purchased DiscoverX (Ambit Biosciences) KINOMEscan
Experimental: as §1, §2, §3

[4] = molecular target: T17, RSK4(Kin.Dom.1-N-terminal) (Homo sapiens, UniProt Q9UK32)
T17 construct: RSK4(Kin.Dom.1-N-terminal); purchased DiscoverX (Ambit Biosciences) KINOMEscan
Experimental: as §1, §2, §3

CASK = molecular target: T18, CASK (Homo sapiens, UniProt O14936); settings: read-out: %Inhibition by 10 μM SPA70
T18 construct: purchased DiscoverX (Ambit Biosciences) KINOMEscan
Experimental: as §1, §2, §3

LATS2 = molecular target: T19, LATS2 (Homo sapiens, UniProt Q9NRM7)
T19 construct: purchased DiscoverX (Ambit Biosciences) KINOMEscan
Experimental: as §1, §2, §3

EPHA2 = molecular target: T20, EPHA2 (Homo sapiens, UniProt P29317); settings: read-out: %Inhibition by 10 μM SPA70
T20 construct: purchased DiscoverX (Ambit Biosciences) KINOMEscan
Experimental: as §1, §2, §3

DYRK1A = molecular target: T21, DYRK1A (Homo sapiens, UniProt Q13627); settings: read-out: %Inhibition by 10 μM SPA70
T21 construct: purchased DiscoverX (Ambit Biosciences) KINOMEscan
Experimental: as §1, §2, §3

[5] = molecular target: T22, TYK2(JH2domain-pseudokinase) (Homo sapiens, UniProt P29597)
T22 construct: TYK2(JH2domain-pseudokinase); purchased DiscoverX (Ambit Biosciences) KINOMEscan
Experimental: as §1, §2, §3

FYN = molecular target: T23, FYN (Homo sapiens, UniProt P06241); settings: read-out: %Inhibition by 10 μM SPA70
T23 construct: purchased DiscoverX (Ambit Biosciences) KINOMEscan
Experimental: as §1, §2, §3

PRKCH = molecular target: T24, PRKCH (Homo sapiens, UniProt P24723); settings: read-out: %Inhibition by 10 μM SPA70
T24 construct: purchased DiscoverX (Ambit Biosciences) KINOMEscan
Experimental: as §1, §2, §3

HIPK2 = molecular target: T25, HIPK2 (Homo sapiens, UniProt Q9H2X6); settings: read-out: %Inhibition by 10 μM SPA70
T25 construct: purchased DiscoverX (Ambit Biosciences) KINOMEscan
Experimental: as §1, §2, §3

CSNK1A1L = molecular target: T26, CSNK1A1L (Homo sapiens, UniProt Q8N752); settings: read-out: %Inhibition by 10 μM SPA70
T26 construct: purchased DiscoverX (Ambit Biosciences) KINOMEscan
T26 sequence (Q8N752 whole entry): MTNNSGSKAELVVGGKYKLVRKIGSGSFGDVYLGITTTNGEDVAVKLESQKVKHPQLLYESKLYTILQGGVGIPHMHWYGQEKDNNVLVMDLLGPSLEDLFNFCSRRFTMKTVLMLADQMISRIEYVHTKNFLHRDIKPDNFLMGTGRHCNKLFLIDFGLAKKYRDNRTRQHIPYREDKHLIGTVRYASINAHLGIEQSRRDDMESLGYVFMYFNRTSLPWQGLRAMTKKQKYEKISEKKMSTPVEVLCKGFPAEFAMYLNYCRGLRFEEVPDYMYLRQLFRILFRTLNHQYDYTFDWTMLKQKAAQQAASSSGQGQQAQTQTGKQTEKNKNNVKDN
Experimental: as §1, §2, §3

LKB1 = molecular target: T27, LKB1 (Homo sapiens, UniProt Q15831); settings: read-out: %Inhibition by 10 μM SPA70
T27 construct: purchased DiscoverX (Ambit Biosciences) KINOMEscan
Experimental: as §1, §2, §3

RIPK5 = molecular target: T28, RIPK5 (Homo sapiens, UniProt Q6XUX3); settings: read-out: %Inhibition by 10 μM SPA70
T28 construct: purchased DiscoverX (Ambit Biosciences) KINOMEscan
Experimental: as §1, §2, §3

CLK1 = molecular target: T29, CLK1 (Homo sapiens, UniProt P49759); settings: read-out: %Inhibition by 10 μM SPA70
T29 construct: purchased DiscoverX (Ambit Biosciences) KINOMEscan
T29 sequence (P49759 whole entry): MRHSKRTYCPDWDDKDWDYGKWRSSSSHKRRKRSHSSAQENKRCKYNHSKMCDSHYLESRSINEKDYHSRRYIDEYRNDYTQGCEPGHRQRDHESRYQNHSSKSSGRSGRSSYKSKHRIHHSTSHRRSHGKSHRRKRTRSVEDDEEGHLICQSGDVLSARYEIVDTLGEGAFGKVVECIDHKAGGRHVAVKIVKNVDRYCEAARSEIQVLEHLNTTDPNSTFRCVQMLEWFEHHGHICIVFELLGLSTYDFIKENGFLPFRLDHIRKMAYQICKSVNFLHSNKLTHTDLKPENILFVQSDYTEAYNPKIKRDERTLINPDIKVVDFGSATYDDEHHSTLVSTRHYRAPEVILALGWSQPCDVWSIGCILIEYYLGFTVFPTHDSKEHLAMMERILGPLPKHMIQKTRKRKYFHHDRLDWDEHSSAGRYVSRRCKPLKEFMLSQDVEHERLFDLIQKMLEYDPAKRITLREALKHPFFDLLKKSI
Experimental: as §1, §2, §3

MYO3B = molecular target: T30, MYO3B (Homo sapiens, UniProt Q8WXR4); settings: read-out: %Inhibition by 10 μM SPA70
T30 construct: purchased DiscoverX (Ambit Biosciences) KINOMEscan
Experimental: as §1, §2, §3

SNRK = molecular target: T31, SNRK (Homo sapiens, UniProt Q9NRH2); settings: read-out: %Inhibition by 10 μM SPA70
T31 construct: purchased DiscoverX (Ambit Biosciences) KINOMEscan
Experimental: as §1, §2, §3

PIK3C2G = molecular target: T32, PIK3C2G (Homo sapiens, UniProt O75747); settings: read-out: %Inhibition by 10 μM SPA70
T32 construct: purchased DiscoverX (Ambit Biosciences) KINOMEscan
T32 sequence (O75747 whole entry): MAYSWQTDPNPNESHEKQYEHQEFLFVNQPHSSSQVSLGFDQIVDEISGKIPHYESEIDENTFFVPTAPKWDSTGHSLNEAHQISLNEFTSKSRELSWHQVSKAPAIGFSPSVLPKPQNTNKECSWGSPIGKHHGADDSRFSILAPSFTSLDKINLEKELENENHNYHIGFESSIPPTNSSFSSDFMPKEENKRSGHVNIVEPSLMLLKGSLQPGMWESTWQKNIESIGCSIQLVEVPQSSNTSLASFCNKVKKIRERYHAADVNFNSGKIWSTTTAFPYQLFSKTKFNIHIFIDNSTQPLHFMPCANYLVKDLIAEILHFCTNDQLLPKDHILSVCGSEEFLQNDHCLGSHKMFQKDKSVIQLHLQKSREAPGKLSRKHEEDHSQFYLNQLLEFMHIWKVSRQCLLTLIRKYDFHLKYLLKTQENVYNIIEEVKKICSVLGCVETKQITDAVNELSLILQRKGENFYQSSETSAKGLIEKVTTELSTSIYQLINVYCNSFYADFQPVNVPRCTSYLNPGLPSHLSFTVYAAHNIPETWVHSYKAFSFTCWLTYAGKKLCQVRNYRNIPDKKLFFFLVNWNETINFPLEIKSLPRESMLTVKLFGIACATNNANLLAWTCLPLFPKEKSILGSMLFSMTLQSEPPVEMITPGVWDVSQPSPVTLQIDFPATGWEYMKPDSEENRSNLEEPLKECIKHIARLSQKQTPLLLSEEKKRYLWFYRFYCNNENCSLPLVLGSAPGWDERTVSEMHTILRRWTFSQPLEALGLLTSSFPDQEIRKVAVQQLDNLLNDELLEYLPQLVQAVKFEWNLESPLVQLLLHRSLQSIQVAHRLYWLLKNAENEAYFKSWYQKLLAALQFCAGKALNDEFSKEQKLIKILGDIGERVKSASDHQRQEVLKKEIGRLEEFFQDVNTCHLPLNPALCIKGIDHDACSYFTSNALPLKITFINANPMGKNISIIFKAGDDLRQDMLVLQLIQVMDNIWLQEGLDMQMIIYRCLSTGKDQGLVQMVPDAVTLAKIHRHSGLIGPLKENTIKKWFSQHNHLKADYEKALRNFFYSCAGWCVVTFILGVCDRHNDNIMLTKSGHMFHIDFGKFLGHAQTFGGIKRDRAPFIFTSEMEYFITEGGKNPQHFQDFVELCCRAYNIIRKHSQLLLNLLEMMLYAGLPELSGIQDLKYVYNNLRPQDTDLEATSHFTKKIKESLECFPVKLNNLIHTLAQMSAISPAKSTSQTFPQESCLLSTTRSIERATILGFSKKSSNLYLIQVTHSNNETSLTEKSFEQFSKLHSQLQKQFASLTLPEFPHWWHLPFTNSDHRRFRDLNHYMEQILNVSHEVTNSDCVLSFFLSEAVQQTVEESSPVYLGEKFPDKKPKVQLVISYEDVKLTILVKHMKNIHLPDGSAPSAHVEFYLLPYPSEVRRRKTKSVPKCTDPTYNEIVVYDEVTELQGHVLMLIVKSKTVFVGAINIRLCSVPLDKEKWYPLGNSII
Experimental: as §1, §2, §3

CSNK1D = molecular target: T33, CSNK1D (Homo sapiens, UniProt P48730); settings: read-out: %Inhibition by 10 μM SPA70
T33 construct: purchased DiscoverX (Ambit Biosciences) KINOMEscan
Experimental: as §1, §2, §3

LOK = molecular target: T34, LOK (Homo sapiens, UniProt O94804)
T34 construct: purchased DiscoverX (Ambit Biosciences) KINOMEscan
Experimental: as §1, §2, §3

FGFR2 = molecular target: T35, FGFR2 (Homo sapiens, UniProt P21802); settings: read-out: %Inhibition by 10 μM SPA70
T35 construct: purchased DiscoverX (Ambit Biosciences) KINOMEscan
Experimental: as §1, §2, §3

SYK = molecular target: T36, SYK (Homo sapiens, UniProt P43405)
T36 construct: purchased DiscoverX (Ambit Biosciences) KINOMEscan
Experimental: as §1, §2, §3

AKT3 = molecular target: T37, AKT3 (Homo sapiens, UniProt Q9Y243); settings: read-out: %Inhibition by 10 μM SPA70
T37 construct: purchased DiscoverX (Ambit Biosciences) KINOMEscan
T37 sequence (Q9Y243 whole entry): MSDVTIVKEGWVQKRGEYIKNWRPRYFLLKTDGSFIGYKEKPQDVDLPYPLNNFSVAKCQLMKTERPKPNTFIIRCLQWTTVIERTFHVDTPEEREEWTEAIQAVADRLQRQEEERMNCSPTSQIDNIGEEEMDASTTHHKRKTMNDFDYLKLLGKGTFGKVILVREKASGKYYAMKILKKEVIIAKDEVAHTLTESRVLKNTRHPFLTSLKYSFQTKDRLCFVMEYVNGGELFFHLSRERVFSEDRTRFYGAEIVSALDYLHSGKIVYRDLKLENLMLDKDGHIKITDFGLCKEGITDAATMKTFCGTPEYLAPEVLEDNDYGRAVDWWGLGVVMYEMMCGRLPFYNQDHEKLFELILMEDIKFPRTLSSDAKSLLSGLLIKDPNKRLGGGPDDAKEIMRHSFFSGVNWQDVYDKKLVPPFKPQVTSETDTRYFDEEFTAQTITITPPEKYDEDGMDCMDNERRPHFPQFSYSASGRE
Experimental: as §1, §2, §3

PIK3C2B = molecular target: T38, PIK3C2B (Homo sapiens, UniProt O00750); settings: read-out: %Inhibition by 10 μM SPA70
T38 construct: purchased DiscoverX (Ambit Biosciences) KINOMEscan
Experimental: as §1, §2, §3

## COc1ccc(OC)c(-n2nnc(S(=O)(=O)c3ccc(C(C)(C)C)cc3)c2C)c1 [SPA70]
PIP5K2C
  inhibition at 10 µM: 10%
BRSK2
  inhibition at 10 µM: 0%
PIK3CD
  inhibition at 10 µM: 0%
ERBB2
  inhibition at 10 µM: 5%
[1]
  %Inhibition by 10 μM SPA70: 0%
BTK
  %Inhibition by 10 μM SPA70: 23%
ABL1-phosphorylated
  inhibition at 10 µM: 19%
MAP3K2
  inhibition at 10 µM: 15%
CDC2L2
  inhibition at 10 µM: 9%
[2]
  inhibition at 10 µM: 37%
QSK
  %Inhibition by 10 μM SPA70: 43%
ERBB4
  inhibition at 10 µM: 2%
HIPK4
  inhibition at 10 µM: 0%
ROS1
  inhibition at 10 µM: 5%
[3]
  inhibition at 10 µM: 12%
CSNK1A1
  inhibition at 10 µM: 1%
[4]
  %Inhibition by 10 μM SPA70: 4%
CASK
  inhibition at 10 µM: 9%
LATS2
  %Inhibition by 10 μM SPA70: 0%
EPHA2
  inhibition at 10 µM: 0%
DYRK1A
  inhibition at 10 µM: 0%
[5]
  %Inhibition by 10 μM SPA70: 0%
FYN
  inhibition at 10 µM: 0%
PRKCH
  inhibition at 10 µM: 13%
HIPK2
  inhibition at 10 µM: 36%
CSNK1A1L
  inhibition at 10 µM: 0%
LKB1
  inhibition at 10 µM: 0%
RIPK5
  inhibition at 10 µM: 24%
CLK1
  inhibition at 10 µM: 0%
MYO3B
  inhibition at 10 µM: 5%
SNRK
  inhibition at 10 µM: 0%
PIK3C2G
  inhibition at 10 µM: 0%
CSNK1D
  inhibition at 10 µM: 3%
LOK
  %Inhibition by 10 μM SPA70: 0%
FGFR2
  inhibition at 10 µM: 0%
SYK
  %Inhibition by 10 μM SPA70: 0%
AKT3
  inhibition at 10 µM: 0%
PIK3C2B
  inhibition at 10 µM: 0%
